Results on 9 compounds are retold here after patent publication US5330990A, “Substituted urea compounds and their preparation and use” (Novo Nordisk A/S, priority 1989, dated 1994).

The structures appear in SMILES notation. Structures can show the parent of a compound that is named as a salt.

In the first assay the target is T1, 5-HT3 receptor (Cavia porcellus, UniProt O70212).
T1 construct: from tissue; host or cells: guinea pig isolated ileum (terminal 15 cm)
T1 sequence (O70212 20-490): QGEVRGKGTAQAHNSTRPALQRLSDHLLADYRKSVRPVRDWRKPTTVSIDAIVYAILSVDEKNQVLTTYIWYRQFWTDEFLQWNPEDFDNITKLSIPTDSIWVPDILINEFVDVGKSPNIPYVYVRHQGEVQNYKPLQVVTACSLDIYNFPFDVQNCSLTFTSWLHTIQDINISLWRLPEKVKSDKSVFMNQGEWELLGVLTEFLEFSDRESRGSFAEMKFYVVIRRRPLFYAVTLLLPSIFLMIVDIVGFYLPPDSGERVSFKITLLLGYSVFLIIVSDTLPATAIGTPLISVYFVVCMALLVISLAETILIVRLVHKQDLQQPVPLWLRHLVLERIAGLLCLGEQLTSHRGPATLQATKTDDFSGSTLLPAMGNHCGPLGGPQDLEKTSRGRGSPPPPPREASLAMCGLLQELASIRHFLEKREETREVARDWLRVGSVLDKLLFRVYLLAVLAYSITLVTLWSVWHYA
In words: 5HT3-antagonist activity: inhibition of 5-HT-induced contractions of isolated guinea pig ileum in the presence of methysergide. The format is cell-based.
Details: not given
As for the experimental part:
Compounds of formula (I) were tested for their 5HT3 -antagonist activity using the following method:
5-HT produces contractions of the guinea pig ileum via 2 different receptors. 1) direct contractions via 5-HT2 receptors on the muscle, 2) indirect contractions via 5-HT3 recaptots on intrinsic gut neurones, producing acetylcholine release. By administering 5-HT to lengths of ileum in the presence of methysergide (to block 5-HT2 receptors) you can assay 5-HT3 receptor activity.
Guinea pigs were killed by means of cervical dislocation the terminal 15 cm of ileum removed, and 1.5-2.0 cm lengths prepared and mounted in 10 ml organ baths containing calcium deficient tyrodes of the following composition (mM) NaCl (136.9); KCl (2.68); CaCl2 (0.9); MgCl2 (1.05); NaCO3 (11.9); NaH2 PO4 (0.42); glucose (5.55) and containing methysergide (10^-6 M) maintained at 37° C. and gassed with 95% O2 and 5% CO2. The mechanical activity of the muscle was measured by a HSE 351 isometric transducer connected via a HSE bridge amplifier to a potentiometric pen recorder. Resting tension was 1 g and the tissue left to equilibrate for 1 hour.
First a dose response curve is obtained to acetylcholine on each tissue. Then one tissue is incubated for 20 min with tyrode and three with tyrode plus the putative 5-HT3 antagonist. After this incubation dose response curves to 5-HT are constructed to 5-HT in all 4 tissues (one control 3+test drug). Contact time for 5-HT 30 sec.
The maximum response to acetylcholine for each tissue is measured and the responses to 5-HT calculated as percentage maximum of the acetylcholine (Ach) maximum response in that tissue. The peak of the 5-HT response is measured.
For each tissue the concentration of 5-HT giving 100% of the maximum acetylcholine response (measured at 30 sac) is quoted.
The effect of a drug is quantified as the ratio of the concentration of 5-HT producing a 100% maximal Ach response in the presence and absence of the antagonist (dose ratio). The figure quoted is the concentration of the antagonist giving a dose ratio of 2, (A2).
For the compound `O=C(Nc1ccccc1-c1nc(C2CC2)no1)NC1CN2CCC1CC2` (stereo not drawn) [Example 10, N-(2-(3-Cyclopropyl-1,2,4-oxadiazol-5-yl)-phenyl)-N^1-(3-quinuclidinyl)urea], the Kb is 283 nM.

The same assay, now with this note: guinea pig ileum; methysergide 10^-6 M; 37° C.; 20 min incubation with antagonist; 5-HT contact time 30 sec; dose ratio at 100% maximal Ach response; read-out: A2 (concentration of the antagonist giving a dose ratio of 2) (converted).
As to `CN1[C@@H]2CC[C@H]1C[C@@H](NC(=O)Nc1ccccc1-c1nc(C3CC3)no1)C2` [Example 5, N-(2-(3-Cyclopropyl-1,2,4-oxadiazol-5-yl)phenyl)-N^1-(endo-8-methyl-8-azabicyclo[3.2.1]oct-3-yl)urea HCl], the Kb was 43.5 nM.

As for `Cc1noc(-c2ccccc2NC(=O)N[C@H]2C[C@H]3CC[C@@H](C2)N3C)n1` [Example 6, N-(Endo-8-methyl-8-azabicyclo[3.2.1]oct-3-yl) -N^1-(2-(3-methyl-1,2,4-oxadiazol-5-yl)-phenyl)urea, HCl], the Kb was 293 nM.

For the compound `CCCCc1noc(-c2ccccc2NC(=O)N[C@H]2C[C@H]3CC[C@@H](C2)N3C)n1` [Example 7, N-(2-(3-Butyl-1,2,4-oxadiazol-5-yl)phenyl)-N^1-(endo-8-methyl-8-azabicyclo[3.2.1]oct-3-yl)urea, (CO2 H)2], the Kb is 13 nM.

For `CN1[C@@H]2CCC[C@H]1C[C@@H](NC(=O)Nc1ccccc1-c1nc(C3CC3)no1)C2` [Example 8, N-(2-(3-Cyclopropyl-1,2,4-oxadiazol-5-yl)-phenyl)-N^1-(endo-9-methyl-9-azabicyclo[3.3.1]non-3-yl)urea, HCl], the Kb was 3.41 nM.

On to `CN1[C@@H]2CCC[C@H]1C[C@@H](NC(=O)Nc1ccccc1-c1nc(-c3ccccc3)no1)C2` [Example 11, N-(Endo-9-methyl-9-azabicyclo[3.3.1]non-3-yl)-N ^1-(2-(3-phenyl-1,2,4-oxadiazol-5-yl)phenyl)urea], for which the Kb is 24 nM.

As for `CN1[C@@H]2CC[C@H]1C[C@@H](NC(=O)Nc1ccccc1C=NOCC1CC1)C2` [Example 15, N-(Endo-8-methyl-8-azabicyclo[3.2.1]oct-3-yl)-N^1-(2-(N-cyclo-propylmethoxyiminomethyl)phenyl)urea, HCl], the Kb was 5.05 nM.

As for `CCON=Cc1ccccc1NC(=O)N[C@H]1C[C@H]2CC[C@@H](C1)N2C` [Example 16, N-(Endo-8-methyl-8-azabicyclo[3.2.1]oct-3-yl)-N^1-(2-(N-ethoxyiminomethyl)phenyl)urea, HCl], the Kb was 36.3 nM.

In the case of `CON=Cc1ccccc1NC(=O)N[C@H]1C[C@H]2CCC[C@@H](C1)N2C` [Example 18, N-(2-(N-Methoxyiminomethyl)phenyl)-N^1-(endo-9-methyl-9-azabicyclo[3.3.1]non-3-yl)urea], the Kb is 36.3 nM.
